Data reported in ChEMBL document CHEMBL4732125, “Structures/cytotoxicity/selectivity relationship of natural steroidal saponins against GSCs and primary mechanism of tribulosaponin A” (Eur J Med Chem, 2021).
Active and inactive are the calls of the source. No cut-off for these calls is given here.

Key:
GSC-3 [1] = assay: Cytotoxicity against human GSC3 cells assessed as inhibition of cell growth at 20 uM after 5 days; type: functional, cell-based; settings: time 5.0 day
U-87 MG [2] = assay: Cytotoxicity against human U-87 MG cells assessed as reduction in cell viability after 72 hrs by MTS assay; type: cell-based, U-87MG ATCC
T98G [3] = assay: Cytotoxicity against human T98G assessed as reduction in cell viability after 72 hrs by MTS assay; type: cell-based
HUVEC [4] = assay: Cytotoxicity against HUVEC assessed as reduction in cell viability after 72 hrs by MTS assay; type: cell-based, Homo sapiens; settings: for IC50: Homo sapiens, HUVEC
U-87 MG [5] = assay: Cytotoxicity against human U-87 MG cells assessed as inhibition of cell growth at 20 uM after 5 days; type: cell-based; settings: u-87mg atcc, 120 h, time 5 day
[6] = (§1) Cytotoxicity against human GSC3 cells assessed as reduction in cell viability after 72 hrs by MTS assay; type: functional, cell-based; settings: GSC-3, 72 h
HUVEC [7] = assay: Cytotoxicity against HUVEC assessed as inhibition of cell growth at 20 uM after 5 days; type: cell-based; settings: human, 120 h, time 5 day
GSC-18 [8] = assay: Cytotoxicity against human GSC18 cells assessed as inhibition of cell growth at 20 uM after 5 days; type: functional, cell-based; settings: time 5.0 day
HEK-293T [9] = assay: Cytotoxicity against human 293T cells assessed as inhibition of cell growth at 20 uM after 5 days; type: cell-based; settings: 120 h, time 5 day
T98G [10] = assay: Cytotoxicity against human T98G cells assessed as inhibition of cell growth at 20 uM after 5 days; type: cell-based; settings: 120 h, time 5 day
HEK-293T [11] = assay: Cytotoxicity against human 293T cells assessed as reduction in cell viability after 72 hrs by MTS assay; type: cell-based; settings: for IC50: Homo sapiens, HEK-293T
[12] = (§2) Cytotoxicity against human GSC18 cells assessed as reduction in cell viability after 72 hrs by MTS assay; type: functional, cell-based, GSC-18; settings: GSC18, 72 h
GSC-3 [13] = assay: as §1; type: functional, cell-based
GSC-18 [14] = assay: as §2; type: functional, cell-based
GSC-3 [15] = assay: Inhibition of colony formation in human GSC-3 cells assessed as tumor spheres damage at 15 uM after 2 weeks by crystal violet staining based assay; type: functional, cell-based
GSC-18 [16] = assay: Inhibition of colony formation in human GSC-18 cells assessed as decrease in number of tumor spheres at 15 uM after 2 weeks by crystal violet staining based assay; type: functional, cell-based
GSC-3 [17] = assay: Inhibition of colony formation in human GSC-3 cells assessed as decrease in number of tumor spheres at 15 uM after 2 weeks by crystal violet staining based assay; type: functional, cell-based
GSC-18 [18] = assay: Inhibition of colony formation in human GSC-18 cells assessed as tumor spheres damage at 15 uM after 2 weeks by crystal violet staining based assay; type: functional, cell-based

Structure (SMILES) | IC50 (HUVEC [4]) | IC50 [6] | IC50 (HEK-293T [11]) | IC50 [12] | Activity (GSC-3 [13]) | Activity (GSC-18 [14]) | other results
CC(=O)O[C@H]1C(=O)[C@@]2(C)[C@H]([C@H](OC(=O)c3ccccc3)[C@]3(O)C[C@H](OC(=O)[C@H](O)[C@@H](NC(=O)c4ccccc4)c4ccccc4)C(C)=C1C3(C)C)[C@]1(OC(C)=O)CO[C@@H]1C[C@@H]2O [PACLITAXEL] | 5 nM | 11300 nM | 10 nM | 9600 nM |  |  | Activity (GSC-3 [1]): Active; IC50 (U-87 MG [2]; Homo sapiens, U-87 MG): 8 nM; IC50 (T98G [3]; Homo sapiens, T98G): 12 nM; Activity (U-87 MG [5]): Toxic; Activity (HUVEC [7]): Toxic; Activity (GSC-18 [8]): Active; Activity (HEK-293T [9]): Toxic; Activity (T98G [10]): Toxic
C[C@@H]1O[C@@H](O[C@H]2[C@H](O[C@H]3CC[C@@]4(C)C(=CC[C@H]5[C@@H]6C[C@@H]7O[C@@]8(OC[C@H](CO)CC8O[C@H]8O[C@@H](CO)[C@H](O)[C@@H](O)[C@@H]8O)[C@@H](C)[C@@H]7[C@@]6(C)CC[C@@H]54)C3)O[C@H](CO)[C@@H](O[C@@H]3O[C@@H](C)[C@H](O)[C@@H](O)[C@H]3O)[C@@H]2O)[C@H](O)[C@H](O)[C@H]1O (stereo partly specified) |  |  |  |  | inactive | inactive | 
C[C@H](CC[C@@]1(O)O[C@H]2C[C@H]3[C@@H]4CC=C5C[C@@H](O[C@@H]6O[C@H](CO)[C@@H](O[C@@H]7O[C@@H](C)[C@H](O)[C@@H](O)[C@H]7O)[C@H](O)[C@H]6O[C@@H]6O[C@@H](C)[C@H](O)[C@@H](O)[C@H]6O)CC[C@]5(C)[C@H]4CC[C@]3(C)[C@H]2[C@@H]1C)CO[C@@H]1O[C@H](CO)[C@@H](O)[C@H](O)[C@H]1O | 3220 nM | 1030 nM | 3220 nM | 1090 nM |  |  | 
Cn1nnc2c(C(N)=O)ncn2c1=O |  |  |  |  |  |  | Activity (GSC-3 [15]): Active; inhibition (GSC-18 [16]): Active; inhibition (GSC-3 [17]): Active; Activity (GSC-18 [18]): Active
C[C@@H]1CC[C@@]2(OC1)O[C@H]1C[C@H]3[C@@H]4CC=C5C[C@@H](O[C@@H]6O[C@H](CO)[C@@H](O[C@@H]7O[C@@H](C)[C@H](O)[C@@H](O)[C@H]7O)[C@H](O)[C@H]6O[C@@H]6O[C@@H](C)[C@H](O)[C@@H](O)[C@H]6O)CC[C@]5(C)[C@H]4CC[C@]3(C)[C@H]1[C@@H]2C |  |  |  |  | Active | Active | 
CO[C@]1(CC[C@@H](C)CO[C@@H]2O[C@H](CO)[C@@H](O)[C@H](O)[C@H]2O)O[C@H]2C[C@H]3[C@@H]4CC=C5C[C@@H](O[C@@H]6O[C@H](CO)[C@@H](O[C@@H]7O[C@@H](C)[C@H](O)[C@@H](O)[C@H]7O)[C@H](O)[C@H]6O[C@@H]6O[C@@H](C)[C@H](O)[C@@H](O)[C@H]6O)CC[C@]5(C)[C@H]4CC[C@]3(C)[C@H]2[C@@H]1C [METHYLPROTODIOSCIN] |  | 1820 nM |  | 1820 nM |  |  | 
C[C@@H]1CC[C@@]2(OC1)O[C@H]1C[C@H]3[C@@H]4CC=C5C[C@@H](O[C@@H]6O[C@H](CO)[C@@H](O[C@@H]7O[C@@H](C)[C@H](O[C@@H]8O[C@@H](C)[C@H](O)[C@@H](O)[C@H]8O)[C@@H](O)[C@H]7O)[C@H](O)[C@H]6O[C@@H]6O[C@@H](C)[C@H](O)[C@@H](O)[C@H]6O)CC[C@]5(C)[C@H]4CC[C@]3(C)[C@H]1[C@@H]2C [PENNOGENIN RAHAMNOSYL CHACOTRIOSIDE] | 1830 nM |  | 1830 nM |  | inactive | inactive | 
C[C@@H]1CC[C@@]2(OC1)O[C@H]1C[C@H]3[C@@H]4CC=C5C[C@@H](O[C@@H]6O[C@H](CO)[C@@H](O)[C@H](O)[C@H]6O[C@@H]6O[C@@H](C)[C@H](O)[C@@H](O)[C@H]6O)CC[C@]5(C)[C@H]4CC[C@]3(C)[C@H]1[C@@H]2C [OPHIOPOGONIN C] |  | 780 nM |  | 780 nM |  |  | Activity (U-87 MG [2]; human, u-87mg atcc, time 72 hrs): Non-Toxic; Activity (T98G [3]; human, t98g, time 72 hrs): Non-Toxic; Activity (HUVEC [4]; human, huvec, time 72 hrs): Non-Toxic; Activity (HEK-293T [11]; human, hek-293t, time 72 hrs): Non-Toxic
